One substance from paper PMC3937211, “Serine Carboxypeptidase SCPEP1 and Cathepsin A Play Complementary Roles in Regulation of Vasoconstriction via Inactivation of Endothelin-1” (PLoS Genetics, 2014) can be followed below.

A short description of data set [1]: ET-1 degradation rate in mouse blood and tissues (ELISA). The data set is classed as in vivo. The settings on record: tail vein injection, at least 5 mice. Here is the method:
To determine the ET-1 degradation rate we injected mice in the tail vein with an ET-1 solution in saline at a dose of […]. Fifteen minutes after injection mice were sacrificed and their lungs and aorta as well as blood were collected to measure the concentration of ET-1 by ELISA. Endogenous levels of ET-1 were measured in the animals injected with saline.
Figure 6 Mice with combined CathA/Scpep1 deficiency have reduced ET-1 degradation rate. Blood plasma, lungs and aorta were collected from WT, Scpep1 ^−/−, CathA^S190A and DD mice 15 min post an intravenous injection of saline or ET-1 in saline (10 nmol/kg BW). The levels of ET-1 peptide were measured by ELISA in lung extracts (A), aorta extracts (B), and in blood plasma extracts (C) from mice injected with ET-1 and blood plasma extracts from mice injected with saline (D). Data are expressed as mean values (±S.E). At least 5 mice were studied for each genotype. * p<0.05 in Welch's modification of two-tailed unpaired t-test. […]
For peptide extraction, tissues (200 mg) were homogenized in 1 mol/L CH3COOH/20 mM HCl. […] Quantitative assay of ET-1 was performed with an ELISA kit (Enzo Life Sciences ADI-900-020A) as described by the manufacturer.
Background: An ELISA detects its analyte on a solid surface through an enzyme-linked reagent.

Data set [2] deals with mice (arterial blood pressure). As to the kind of experiment: Blood pressure response to intravenous peptide injection, radiotelemetry. The data set is classed as in vivo, mouse. To be noted: for BP response to i.v. injection: 0.2 nmol/kg i.v. Here is the method: This hypothesis was further tested by measuring changes in BP in response to ET-1 and AI, the precursor of vasoconstrictive peptide AII. The changes in the diastolic and systolic BP (ΔDBP and ΔSBP, respectively) were calculated as the differences between the measured BP values and the basal values measured for the 30 min interval preceding the injection. To reduce the impact of the stress on BP caused by animal handling/injection, animals were receiving daily saline injections for 3 days prior to the experiment.
Figure 3 Mice with combined CathA/Scpep1 deficiency show higher increase in BP in response to systemic injection of ET-1. Sixteen week-old WT, Scpep1^−/−, CathA^S190A and DD male mice kept for two weeks on high-salt diet were intravenously injected with ET-1 solution in saline at a dose of 0.2 nmol/kg (A, B) and 5 nmol/kg (C, D). Changes in the systolic (ΔSBP) or diastolic (ΔDBP) blood pressure were calculated as differences between the means (±S.E) of the BP values recorded within 10 min intervals after the injections and means (±S.E) of the baseline BP values recorded within the 30 min interval before the injections. Two-way repeated measurements ANOVA was used to test differences between the mouse groups: significant differences between the mean BP values in Bonferroni post-test (* p<0.05, ** p<0.001, *** p<0.0001) are shown in the insert. N-value for each genotype is as follows: WT n = 5, DD n = 6, CathA^S190A n = 6, Scpep1 ^−/− n = 7.
Male CathA^S190A mice and appropriate littermate controls were implanted with TA11PA-C10 radiotelemetry sensors (Data Sciences International) in the left carotid artery for direct measurement of arterial pressure and heart rate as described, [38]. The transmitter was placed subcutaneously along the left flank. For basal measurements of mean day and night BP data were recorded continuously (sampling every hour for 20 sec) within 16 consecutive days and averaged for 12 h light and dark intervals. To measure changes in BP after ET-1 and AI injections data were recorded every 3 min for 2 h and averaged for 10-min consecutive intervals. […]

For the substance endothelin-1 [ET-1], the “ET-1 concentration 15 min after injection versus WT or Scpep1-deficient animals” value in data set [1] (lungs and aorta of CathA-deficient mice) is reported as “higher”. Moreover, the “ET-1 concentration 15 min after injection versus WT, CathA-deficient or Scpep1-deficient mice” value in data set [1] (tissues or plasma of DD mice, dose printed 0.1 nmol/kg BW) is “significantly higher”. The “BP response to i.v. injection” value in data set [2] (DD mice versus other genotypes, high-salt diet) was “higher response as compared to all other groups of mice”; in data set [2] (WT and Scpep1-deficient mice on high-salt diet) it was “no BP increase”. Moreover, the “time BP remained significantly elevated after injection” value in data set [2] (5 nmol/kg i.v., DD mice) is “at least 60 min”.
